Results on one compound are retold here after US9957253B2, “Triaminopyrimidine compounds useful for preventing or treating malaria” (MMV MEDICINES FOR MALARIA VENTURE, priority 2014, dated 2018).

For the assay, the system named is Pf parasites. The assay is described as follows: Pf/SCID model efficacy. Type of assay: in vivo, P. falciparum. The note with it: oral. Here is the method: Blood Cmin (0.04 μM) observed at this dose was considered the minimum parasiticidal concentration (MPC) for the human dose prediction.

With `Cc1nc(Nc2ncc(N3CCN(C)[C@H](C)C3)c(Nc3cc(C)n(C)n3)n2)cc(C2CC2)c1F` [Example 13, (R)—N2-(4-cyclopropyl-5-fluoro-6-methylpyridin-2-yl)-N4-(1,5-dimethyl-1H-pyrazol-3-yl)-5-(3,4-dimethylpiperazin-1-yl)pyrimidine-2,4-diamine], the “Dose at which maximum kill rate was observed” value came out at 40 mg/kg.
